The source of these data is PMC5897774, “Mitotic spindle association of TACC3 requires Aurora‐A‐dependent stabilization of a cryptic α‐helix” (The EMBO Journal, 2018).

Residues, ends and D or L forms follow the SMILES beside them.

In one experiment the target is T1, CHC 1–574 (Homo sapiens, UniProt Q00610).
T1 construct: GST (cleaved yes); made in house
Nature of the experiment: FP binding assay, CHC 1–574. To be noted: 50 nM FAM peptide, pH 7.5, 25°C, mutant vs WT phospho-TACC3^CID. Here is the method: For CHC‐TACC3 FP assays, CHC proteins were serially diluted in FP buffer (20 mM HEPES–NaOH pH 7.5, 200 mM NaCl, 5 mM DTT). FAM‐labelled TACC3 peptide was added to a final concentration of 50 nM and incubated for 30 min at room temperature to allow binding to reach equilibrium. Fluorescence polarization measurements were made using a Victor X5 plate reader (Perkin Elmer) at 25°C with excitation at 490 nm and emission at 535 nm. Data analysis was performed as described above.

Another experiment relates to Aurora‐A. Particulars: whether T288 is phosphorylated or not, ref Bayliss et al, 2003, Eyers et al, Dodson & Bayliss, 2012; cited from earlier work. The source says: The activity of Aurora‐A is controlled through phosphorylation of its activation loop on T288 (Bayliss et al, 2003; Eyers et al, 2003). Like many of its other binding partners, such as TPX2, I‐2, HEF1, and N‐Myc, TACC3 is an Aurora‐A activator (Nikonova et al, 2013; Richards et al, 2016). However, only in the case of TPX2 has the mechanism of activation, and how this synergizes with phosphorylation of T288, been resolved (Bayliss et al, 2003; Eyers et al, 2003; Dodson & Bayliss, 2012).

T1 sequence (Q00610 1-574): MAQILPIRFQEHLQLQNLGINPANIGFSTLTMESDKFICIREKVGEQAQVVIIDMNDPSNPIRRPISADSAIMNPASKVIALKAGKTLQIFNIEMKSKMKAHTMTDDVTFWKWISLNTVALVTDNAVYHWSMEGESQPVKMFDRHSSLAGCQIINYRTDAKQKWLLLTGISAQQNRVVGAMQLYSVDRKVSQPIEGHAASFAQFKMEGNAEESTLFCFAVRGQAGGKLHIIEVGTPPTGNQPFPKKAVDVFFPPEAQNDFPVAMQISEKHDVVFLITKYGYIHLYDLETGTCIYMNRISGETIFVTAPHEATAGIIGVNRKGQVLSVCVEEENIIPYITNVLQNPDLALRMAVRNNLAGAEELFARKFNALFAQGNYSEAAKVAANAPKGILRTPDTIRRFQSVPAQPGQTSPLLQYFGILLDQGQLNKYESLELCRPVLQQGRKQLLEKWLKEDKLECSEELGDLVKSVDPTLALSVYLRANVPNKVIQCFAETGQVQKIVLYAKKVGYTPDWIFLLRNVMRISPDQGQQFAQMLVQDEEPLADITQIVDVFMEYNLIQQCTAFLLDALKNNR

For the compound `CC(C)C[C@H](NC(=O)[C@H](C)NC(=O)[C@H](CO)NC(=O)[C@H](CCC(=O)O)NC(=O)[C@H](CCCCN)NC(=O)[C@H](Cc1ccccc1)NC(=O)c1ccc2c(c1)C(=O)OC21c2ccc(O)cc2Oc2cc(O)ccc21)C(=O)N[C@@H](C)C(=O)N[C@@H](C)C(=O)N[C@@H](CCC(N)=O)C(=O)N[C@@H](COP(=O)(O)O)C(=O)N[C@@H](CC(C)C)C(=O)N[C@@H](Cc1ccc(O)cc1)C(=O)N[C@@H](CC(C)C)C(=O)N[C@@H](CCCCN)C(=O)N[C@@H](Cc1ccccc1)C(=O)N[C@@H](CC(=O)O)C(=O)N1CCC[C@H]1C(=O)N[C@@H](CC(C)C)C(=O)N[C@@H](CC(C)C)C(=O)N[C@@H](CCCNC(=N)N)C(=O)N[C@@H](CC(=O)O)C(=O)N[C@@H](CO)C(=O)O` [R555A, K556A] (HELM PEPTIDE1{[O=C1OC2(c3ccc(O)cc3Oc3cc(O)ccc32)c2ccc(C(=O)[*:2])cc21].F.K.E.S.A.L.A.A.Q.[O=C([C@H](COP(=O)(O)O)N[*:1])[*:2]].L.Y.L.K.F.D.P.L.L.R.D.S}$$$$V2.0; N-terminus and C-terminus assumed), the “factor of reduction of affinity for CHC 1–574” value on CHC 1–574 is recorded as 4–5 factor.
As for “TPX2 1–43: amino acids 1–43 of TPX2 (MSQVKSSYSYDAPSDFINFSSLDDEGDTQNIDSWFEEKANLEN; UniProt Q9ULW0 1-43, looked up, fragment)”, the “stimulation of Aurora‐A activity” value in the experiment on Aurora‐A is “stimulate Aurora‐A activity”.
